Results as given in patent publication US20250041270A1, “SMALL MOLECULE DRUGS THAT REDUCE PROTEIN AGGREGATION” (BIOVENTURES, LLC, priority 2021, published 2025).

Assays:
[1] = test system: neuroblastoma cells; assay: Initial testing for cytotoxicity in neuroblastoma cells; format: cell-based, human; details: data not shown
[2] = test system: C. elegans; assay: Effect on C. elegans development; format: in vivo; details: all doses tested, data not shown
[3] = test system: SH-SY5Y-APPSw cells; assay: Total sarkosyl-insoluble aggregate protein, SYPRO Ruby stained gels; format: cell-based, human; details: for suppression of aggregate protein: cells treated 48 h, sarkosyl-insoluble fraction
Procedure: MSR1 treatment of SH-SY5Y-APPSw, cells. Human neuroblastoma (SH-SY5Y-APPSw) cells were grown as previously described (Kakraba et al., 2)19, Liu et al., 2005). SH-SY5Y-APPSw cells, expressing an aggregation-prone “Swedish” double mutant of amyloid precursor protein (APPSw), were grown in DMEM plus 10% (v/v) FBS at 37° C. Cells were suspended in trypsin/EDTA and rinsed in buffer prior to replating or harvesting. Immediately preceding assay, cells were grown 48 hr in the presence of 10-μM MSR1 dissolved in DMSO (0.02% final concentration), or 0.02% DMSO (solvent alone) for control cells. Cells were harvested, total protein was isolated, and aggregate proteins were purified as described below.
Isolation of aggregate proteins. Cultured human cells were collected, flash frozen in liquid nitrogen, and homogenized at 0° C. in the presence of buffer containing nonionic detergent (1% v/v NP40, 20-mM Hepes pH 7.4, 300-mM NaCl, 2-mM MgCl2, and protease/phosphatase inhibitors [CalBiochem]). Lysates were centrifuged (5 min, 3000 rpm at 4° C.) to remove debris. After removal of cytosolic proteins (soluble in 1% NP40 nonionic detergent) by centrifugation (18 min, 13,000×g at 4° C.), protein pellets were brought to pH 7.4 with 0.1-M HEPES buffer containing 1% v/v sarkosyl(sodium lauryl sarcosinate) and 5-mM EDTA, and centrifuged 30 min at 100,000×g. Pellet proteins (the sarkosyl-insoluble fraction) were resuspended in Laemmli loading buffer (containing 50-mM dithiothreitol and 2% v/v SDS, sodium dodecyl sulfate), heated 5 min at 95° C. to dissolve proteins soluble in this buffer, and separated by electrophoresis on 4-20% polyacrylamide gradient gels containing 1% v/v SDS. Gels were stained with SYPRO Ruby (ThermoFisher) or Coomassie Blue to visualize protein. Gel lanes were robotically cut into 1-mm slices, and digested thoroughly with trypsin. Proteins in each slice were identified by mass spectrometry as described previously (Ayyadevara et al., 2015; Ayyadevara et al., 2016a; Ayyadevara et al., 2016b; Ayyadevara et al., 2016c; Ayyadevara et al., 2016d; Balasubramaniam et al., 2018).

[4] = test system: C. elegans strain VH255; assay: Paralysis assay in human tau-expressing C. elegans; format: in vivo; details: 1-μM; compared with siRNA against ifp-1
Procedure: Paralysis assays in human tau-expressing C. elegans strain VH255. Transgenic C. elegans strain VH255, with pan-neuronal expression of human tau (Brandt et al., 2009), are maintained at 25° C. on agar plates overlaid with a lawn of E. coli (OP50) bacteria. Worms are lysed in alkaline hypochlorite solution to obtain unlaid eggs used to generate a synchronized culture. The eggs were then transferred to 100-mm NGM-agar plates, to which MSR1 or MSR2 had been added to a final concentration of 1 μM. For ifp-1 RNAi knockdown, the bacterial lawn consisted of strain HT115 expressing an exonic segment of double-stranded ifp-I RNA (see next section). The worms were washed and added to fresh, drug-equilibrated plates every two days. Assays were performed on day-3 adults to assess the fraction of paralyzed worms.

[5] = test system: C. elegans strain CL2355; assay: Chemotaxis to n-butanol in Aβ1-42 expressing C. elegans; format: in vivo; details: 0.1 μM
Procedure: Chemotaxis and paralysis assay)s in Aβ-tragsgenic C elegans strains CL2355 and CL4176. Transgenic C. elegans strains, expressing Aβ1-42 in neurons (C2355) or in muscle (CL4176), were grown at 20° C. with ample 1. coli (OP50) bacteria, and on day 1 of adult life worms were lysed to release eggs and thus generate a synchronized cohort. Eggs were then placed on I00-mm NGM-agar Petri dishes seeded with RNAi-expressing bacteria (E coil H-T1′15) targeting a GFAP orthologue, or empty-vector control bacteria. Worms at the L3-L4 transition were upshifted to 25.5° C. to induce human Aβ1-42 transgene expression and assayed after 48 hours. Chemotaxis (Dosanjh et al., 2010) and paralysis (Dostal and Link, 2010) assays were performed as described previously (Ayyadevara et al., 2017; Ayyadevara et al., 2016b; Ayyadevara et al., 2016d; Kakraba et al., 2019).
(§1) RNAi in C.elegans. RNA-mediated interference (RNAi) is achieved by feeding bacteria that express double-stranded RNA corresponding to an exonic fragment of the mRNA target (Ayyadevara et al., 2016c; Fire et al., 1991; Fire et al., 1998; Kakraba et al., 2019). Briefly, worm cultures were synchronized by alkaline hypochlorite lysis to release unlaid eggs. […] Worms on adult day 3 (5.5 days post-hatch) were imaged to assess total aggregate fluorescence (strain AM141), or were assessed for paralysis (VH255) or chemotaxis toward n-butanol (CL2355).

[6] = test system: C. elegans strain AM141; assay: Q40::YFP aggregate fluorescence per worm; format: in vivo; details: 5 days post-hatch
Text: C. elegans strains: Nematode strains used in this study were all obtained from the Caenorhabditis Genetics Center (CGC; Minneapolis, MN). Nematode models of Alzheimer's disease-like arnyloidosis were CL4176 [smg-1^ts; myo-3p::Aβ1-42::let-851 3′-UTR; rol-6(sul006)] expressing human Aβ1-42 in muscle; and CL2355 [smg-l^ts; snb-1::Aβ1-42::3′UTR(long); mtl-2::gfp] expressing human Aβ1-42 in all neurons. Strain AM141 expresses a polyglutamine reporter (Q40::YFP) in muscle, and thus serves as a model of glutamine-tract aggregation similar to that observed in Huntington disease and several other neuropathologies (Morley et al., 2002). All strains were propagated at 20° C. on2% (w/v) agar plates containing nematode growth medium (NGM), overlaid with E col strain OP50 unless otherwise noted.
as §1

| SMILES | cytotoxicity [1] | C. elegans development [2] | suppression of aggregate protein [3] | suppression of protein aggregation ([3]; summary statement: a variety of model systems) | paralysis caused by tau aggregation [4] | chemotaxis restored to [5] | reduction of aggregate intensity per worm ([6]; 10 μM) | reduction of aggregate intensity per worm ([6]; 0.1-μM) |
| --- | --- | --- | --- | --- | --- | --- | --- | --- |
| O=C(c1ccc(N2CCCC2)c(Cl)c1)N1CCN(c2ccccn2)CC1 [MSR3, 1-(3-chloro-4-pyrrolidin-1-ylbenzoyl)-4-pyridin-2-ylpiperazine] | cytotoxic | delay C. elegans development |  |  |  |  |  |  |
| O=C(NC[C@H]1CC[C@H](CO)CC1)c1ccc(N2CCCC2)c(Cl)c1 [MSR1, 3-chloro-N-{[trans-4-(hydroxymethyl)cyclo-hexyl]methyl}-4-pyrrolidin-1-ylbenzamide] |  |  | 60-75% | 60-75% | alleviated to a similar extent | ~90% | ~50% | 35% |
| O=C(c1cc2c([nH]c1=O)CCCC2)N1CCN(c2ccc(Cl)cn2)CC1 [MSR2, 3-{[4-(5-chloro-2-pyridinyl)-1-piperazinyl]carbonyl}-5,6,7,8-tetrahydro-2(1H)-quinolinone] |  |  | did not significantly reduce |  |  |  |  |  |
